Source: US12527752B2, “Composition based on gellan gum and phenylephrine, production method and use as an ophthalmic product” (UNITHER PHARMACEUTICALS, priority 2019, dated 2026)

System: human corneal epithelial (HCE) cell line
Assay: Cytotoxicity neutral red test
Format: cell-based
Conditions: HCE cells, 30 minutes incubation
Procedure: A human corneal epithelial (HCE) cell line was cultured in Dulbecco's essential medium (Eurobio, Les Ulis, France) supplemented with 10% fetal calf serum (Eurobio), 1% glutamine (Eurobio) and 1% penicillin and streptomycin (Eurobio). Cultures were maintained at 37° C. in 5% CO2 in a humidified incubator.
All wells were seeded with the same number of cells (9×10^4 cells/mL solution). After 24 hours, the cells reached about 70% to 80% confluency. The cells were washed with PBS and incubated for 30 minutes with 100 μL of gels in situ. […] The cells were then washed with PBS. A neutral red test was performed immediately after incubation and after 24 hours of recovery in the culture medium. The experiments were performed in triplicate.
The neutral red test (Fluka, Buchs, Switzerland) is a cell viability test based on the ability of viable cells to incorporate neutral red, which is a weak cationic dye that readily penetrates cell membranes by nonionic diffusion and accumulates in lysosomes. […] The integrity of the lysosomal membrane is closely related to cell viability and is assessed by neutral red fluorescence (excitation at 535 nm; emission at 600 nm). […] The dye was then released from the cells using 200 μL of lysis solution per well (1% acetic acid, 50% ethanol and 49% H2O), then the fluorescence was measured using a fluorometer for microplates (Safire; Tecan, Lyon, France).

## CNC[C@H](O)c1cccc(O)c1 [PHE, phenylephrine]
  effect on cell viability: significant cytotoxicity
